US20100303896A1, “5BETA, 14BETA-ANDROSTANE DERIVATIVES USEFUL FOR THE TREATMENT OF RESTENOSIS AFTER ANGIOPLASTIC OR ENDOARTHERECTOMY AND DISEASES DUE TO ORGAN FIBROSIS” (SIGMA-TAU INDUSTRIE FARMACEUTICHE RIUNITE S.P.A., priority 2007, published 2010)
“And” between values parts separate entries of the source, which are not always exact repeats. Equal values may be shown once. “Also recorded” adds a separate entry of the source.

Tests used:
Assay type in all cases: in vivo, rat
[1] = system: spontaneous hypertensive MHS rats; experiment: Prevention of restenosis after carotid surgical injury (endoartherectomy model), morphometry of the carotid lumen area
Excerpt: To test the activity of the compound of the invention for the prevention of restenosis after endoartherectomy, spontaneous hypertensive MHS rats with genetic arterial hypertension (Bianchi G., Barber B. R., Torielli L., Ferrari P. The Milan hypertensive strain of rats. Genetic Model of Hypertension. 1994; 22: 457-460) were used. MHS rats are available at Prassis Research Institute, Sigma-tau, Italy.
After this period rats were subjected to the vascular surgical injury according to the protocol listed below. After surgical injury, rats were maintained under treatment either with vehicle or Rostafuroxin for further 30 days and then sacrificed for carotid artery sampling. […] The final number of rats used for the histological carotid analysis was; MHS vehicle=7, MHS Rostafuroxin=9.
(§1) The carotid surgical injury model used on MHS and MNS rat is described in J. Cell. Physiol. 2001; 186:307-313.
(§2) Briefly, a plastic Scanlon clamp for coronary artery bypass grafting was placed for 10 seconds on the carotid artery in order to cause a crushing lesion to vessel. At the same point where the clamp was applied, a 0.5 mm longitudinal incision was performed on the full thickness of the carotid artery. […] Hemostasis was obtained with a single adventitial 8.0-gauge polypropylene stitch. Once bleeding stopped, the carotid artery was carefully examined and blood pulsation was checked distally to the incision.
Carotid arteries were taken 30 days after injury. […]
(§3) For each injured carotid, at least 60 serial cross-sections were observed under a light microscope at 20× magnification; image screening and photography were performed using Leica IM 1000 System (Leica, Wetzlar, Germany). The sections of injured carotids showing maximal remodelling and proliferative phenomena were identified and further analyzed.
(§4) Lumen and medial areas were measured using the Leica IM 1000 software (Leica, Heerbrugg, Switzerland). […] For each contralateral uninjured carotid, at least 10 sections were analyzed and the average media and lumen areas were calculated. […]

[2] = system: MNS rats without arterial hypertension; experiment: Prevention of restenosis after carotid surgical injury, morphometry of the carotid lumen area; conditions: 100 μg/kg orally, carotid taken 30 days after injury
Protocol: as §1, §2
Carotid arteries were taken 30 days after injury. Rats were anaesthetized and carotids were dissected free from the surrounding tissues. […]
as §3, §4

[3] = system: MHS rats with CCl4-induced liver fibrosis; experiment: CCl4-induced liver fibrosis: body and organ weights
Excerpt: (§5) To test the activity of the compound of the invention for the prevention and treatment of organ fibrosis, spontaneous hypertensive MHS rats with genetic arterial hypertension (Bianchi G., Barber B. R., Torielli L., Ferrari P. The Milan hypertensive strain of rats. Genetic Model of Hypertension. 1994; 22: 457-460) were used. MHS rats are available at Prassis Research Institute, Sigma-tau, Italy.
(§6) Liver fibrosis was induced by CCl4 oral administration as described in J. Hepatol. 1999; 30: 621-631, with minor modifications: 0.375 ml/kg of CCl4 dissolved in olive oil was administered three times per week for three weeks by oral gavage to rats starting from the 7th week after weaning. Control rats received only the vehicle (olive oil). Rostafuroxin treatment started 7 weeks before the induction of liver fibrosis by CCl4 administration (pretreatment) and was continued during the CCl4 treatment for three weeks. Rostafuroxin was orally administered at 1 mg/kg/day, suspended in Methocel (0.5%). A total of twenty four MHS rats of 25 days of age (weaning) were subdivided in three groups of 8 rats each: the first group, considered as negative control for liver fibrosis induction (Ctr.), was orally treated with the Rostafuroxin vehicle (Methocel 0.5%) along the entire period (10 weeks) and received the olive oil as vehicle of CCl4 at the 7th week after weaning for three weeks; the second group, considered as positive control for liver fibrosis (Ctr. LF), was orally treated with the Rostafuroxin vehicle (Methocel 0.5%) along the entire period (10 weeks) and received CCl4 at the 7th week after weaning for three weeks; the third group, Rostafuroxin treated with liver fibrosis (RLF), received Rostafuroxin at 1 mg/kg along the entire period (10 weeks) and received CCl4 at the 7th week after weaning for three weeks. At the end of the treatment (10th week), rats were weighed and anaesthetized with pentobarbital for blood sampling and organ removal. The blood was let clotted and serum separated after centrifugation and saved for measurement of serum albuminemia and transaminases (ALT and AST) on a Pentra 400 (ABX) Automatic Hematology Analyzer. Spleen and liver were removed and weighed. Samples of the liver median lobe were immediately frozen in liquid nitrogen and kept at −80° for further biochemical measurement of the 4-Hydroxiproline liver content, taken as an index of collagen deposition (Biochem. J. 1961; 80(1): 148-154). The rest of the liver was preserved in a 10% buffered formalin solution for the histological analysis.

[4] = system: MHS rats with CCl4-induced liver fibrosis; experiment: CCl4-induced liver fibrosis: serum albuminemia and transaminases (ALT and AST)
Excerpt: as §5, §6

[5] = system: MHS rats with CCl4-induced liver fibrosis; experiment: CCl4-induced liver fibrosis: hydroxyproline liver content
Excerpt: as §5
as §6, with “At the end of the treatment (10th week), rats were weighed and anaesthetized with pentobarbital for blood sampling and organ removal. The blood was let clotted and serum separated after centrifugation and saved for measurement of serum albuminemia and transaminases (ALT and AST) on a Pentra 400 (ABX) Automatic Hematology Analyzer. Spleen and liver were removed and weighed. Samples of the liver median lobe were immediately frozen in liquid nitrogen and kept at −80° for further biochemical measurement of the 4-Hydroxiproline liver content, taken as an index of collagen deposition (Biochem. J. 1961; 80(1): 148-154). The rest of the liver was preserved in a 10% buffered formalin solution for the histological analysis.” left out
Hydroxyproline liver content was determined as described in Anal. Biochem. 1981; 112: 70-75, with slight modifications.
Liver tissue (0.4 g) was homogenized in 3 ml 6 N HCl and hydrolyzed at 110° C. for 24 h. […] After cooling, the absorbance was measured at 558 nm (Jasco V-530).

[6] = system: MHS rats with CCl4-induced liver fibrosis; experiment: CCl4-induced liver fibrosis: histopathology and qualitative fibrosis score on Syrius red stained slides; set-up: key to Liver fibrosis score, histological appearance (FIG. 8): 0: Absence of liver fibrosis, but normal staining pattern only; 1: Mild degree, corresponding to centrilobular/periportal fibrosis, with predominantly uncomplete septal expansion—mild focal interstitial fibrosis; 2: Moderate degree, corresponding to diffuse bridging fibrosis, with focal nodular appearance—multifocal interstitial fibrosis; 3: Severe degree, corresponding to confluent fibrosis, with diffuse nodular appearance—severe diffuse interstitial fibrosis
Excerpt: as §5, §6
For each case, the median and the left lobes of the liver were subjected to standard trimming and embedding procedures; slides were stained with Hematoxylin and Eosin (H&E) (Laboratory Methods in Histotechnology; Armed Forces Institute of Pathology Published by the American Registry of Pathology Washington, D.C. 1992). Special techniques were also applied in order to allow proper connective tissue detection (Masson's Trichrome stain—Laboratory Methods in Histotechnology; Armed Forces Institute of Pathology Published by the American Registry of Pathology Washington, D.C. 1992) as well as specific collagen detection and hepatic fibrosis evaluation (Syrius red staining method as described in The Journal of Histochemistry and Citochemistry 1985; vol 33, No. 8, pp. 737-743).
Liver fibrosis was qualitatively scored on Syrius red stained slides as follows:
0=Absence of liver fibrosis, but normal staining pattern only;
1=Mild degree, corresponding to centrilobular/periportal fibrosis, with predominantly uncomplete septal expansion—mild focal interstitial fibrosis;
2=Moderate degree, corresponding to diffuse bridging fibrosis, with focal nodular appearance—multifocal interstitial fibrosis;
3=Severe degree, corresponding to confluent fibrosis,
with diffuse nodular appearance—severe diffuse interstitial fibrosis. […]

[7] = system: MHS rats with CCl4-induced liver fibrosis; experiment: CCl4-induced liver fibrosis: quantitative histomorphometric analysis of fibrotic area (Sirius Red, ImageJ)
Excerpt: as §5
Liver fibrosis was induced by CCl4 oral administration as described in J. Hepatol. 1999; 30: 621-631, with minor modifications: 0.375 ml/kg of CCl4 dissolved in olive oil was administered three times per week for three weeks by oral gavage to rats starting from the 7th week after weaning. Control rats received only the vehicle (olive oil). Rostafuroxin treatment started 7 weeks before the induction of liver fibrosis by CCl4 administration (pretreatment) and was continued during the CCl4 treatment for three weeks. Rostafuroxin was orally administered at 1 mg/kg/day, suspended in Methocel (0.5%). […]
A quantitative analysis of the degree of fibrosis, following the histological qualitative analysis, was performed by digital imaging conversion of the histological pictures by a previously described method (J. Gastroenterol. 2004, Oct. 1; 10(19)2894-2897).
Briefly, after staining with Sirius Red, liver collagen content was measured by histomorphometric method. […] Each picture was analyzed by computer system ImageJ version 1.39 for digital image analysis. […] The fibrotic area with positive staining were automatically selected, outlined and evaluated. Relative content of collagen was calculated as a percentage of positive staining pixels on the total number of pixels of the picture.

[8] = RLF group, 1 mg/kg os for 10 weeks + CCl4, individual rats, 1 mg/kg
[9] = rats with CCl4-induced liver fibrosis, 1 mg/kg os
[10] = rats with CCl4-induced liver fibrosis, vs Ctr. LF, statistically significant

Q: Which results are given for C[C@]12CC[C@H](O)C[C@H]1CC[C@@H]1[C@@H]2CC[C@]2(C)[C@@](O)(c3ccoc3)CC[C@]12O [Rostafuroxin, 17 beta-(3-Furyl)-5 beta-androstane-3beta, 14 beta, 17 alpha-triol]?
A: Change in arterial restenosis vs vehicle ([1]; MHS rats with arterial hypertension, vs vehicle, statistically significant): −45%; Carotid lumen area, Injured/Uninjured carotid ratio, mean ([1]; MHS rats, 100 μg/kg orally, carotid taken 30 days after injury, group mean (n=9), vehicle mean 0.379): 0.680; Carotid lumen area, Injured/Uninjured carotid ratio ([1]; MHS rats, 100 μg/kg orally, carotid taken 30 days after injury, individual animals): 0.86 and 0.83 and 0.81 and 0.66 and 0.54 and 0.36 and 0.25 and 0.90 and 0.89; Carotid lumen area, Injured/Uninjured carotid ratio, mean ([2]; group mean (n=10), vehicle mean 0.540): 0.765; Carotid lumen area, Injured/Uninjured carotid ratio ([2]; individual animals): 0.93 and 0.83 and 0.80 and 0.76 and 0.75 and 0.68 and 0.59 and 0.36 and 1.00 and 0.95; Spleen/bw, mean ([3]; RLF group, 1 mg/kg os for 10 weeks + CCl4, group mean (n=8), Ctr. LF mean 0.355): 0.284%; Spleen/bw [3, 8]: 0.251% and 0.316% and 0.261% and 0.262% and 0.247% and 0.302% and 0.348% and 0.288%; Weight of the liver [3, 9]: not modified; Reduction of spleen weight [3, 10]: 20%; Albumin, mean ([4]; RLF group, 1 mg/kg os for 10 weeks + CCl4, group mean (n=8), Ctr. LF mean 3.02): 3.53 g/dL; Albumin [4, 8]: 3.65 g/dL and 3.36 g/dL and 4.15 g/dL and 2.95 g/dL and 3.19 g/dL and 3.07 g/dL and 3.82 g/dL and 4.04 g/dL; Transaminases (ALT and AST) [4, 9]: not modified; Increase of plasma levels of albumin [4, 10]: 16.8%; Liver hydroxyproline, mean ([5]; RLF group, 1 mg/kg os for 10 weeks + CCl4, group mean (n=8), Ctr. LF mean 1596.45): 1184.9 μg/g prot; Liver hydroxyproline [5, 8]: 886.5 μg/g prot and 791.6 μg/g prot and 1217.4 μg/g prot and 811.0 μg/g prot and 799.8 μg/g prot and 2762.3 μg/g prot and 750.0 μg/g prot and 1460.7 μg/g prot; Reduction of liver content of hydroxyproline ([5]; rats with CCl4-induced liver fibrosis, vs Ctr. LF): 25.8%; Extension of liver tissue damage (histopathology) ([6]; CCl4-treated rats, 1 mg/kg os, compared with Ctr. LF group, 1 mg/kg): minor extension of tissue damage; also recorded: less extended tissue damage; Liver fibrosis Absence (score 0), % of rats ([6]; RLF group, 1 mg/kg OS + CCl4): 0%; Liver fibrosis Absence (score 0), No. of rats ([6]; RLF group, 1 mg/kg OS + CCl4): 0/8; Liver fibrosis Mild (score 1), % of rats ([6]; RLF group, 1 mg/kg OS + CCl4): 75%; Liver fibrosis Mild (score 1), No. of rats ([6]; RLF group, 1 mg/kg OS + CCl4): 6/8; Liver fibrosis Moderate (score 2), % of rats ([6]; RLF group, 1 mg/kg OS + CCl4): 25%; Liver fibrosis Moderate (score 2), No. of rats ([6]; RLF group, 1 mg/kg OS + CCl4): 2/8; Liver fibrosis Severe (score 3), % of rats ([6]; RLF group, 1 mg/kg OS + CCl4): 0%; Liver fibrosis Severe (score 3), No. of rats ([6]; RLF group, 1 mg/kg OS + CCl4, 1 mg/kg): no rats and 0/8; Liver fibrosis score, histological appearance (FIG. 8) ([6]; liver from two CCl4 rats treated at 1 mg/kg os (RLF group)): 1; % FIBROTIC AREA, mean ([7]; RLF group, 1 mg/kg os for 10 weeks + CCl4, group mean (n=8), Ctr. LF mean 10.48): 5.50%; % FIBROTIC AREA [7, 8]: 4.64% and 5.50% and 1.44% and 6.63% and 6.89% and 5.08% and 11.80% and 2.01%; Reduction of liver fibrotic area [7, 10]: 47.5%
